Reference: patent US6921531B2, “Administering bifunctional molecules containing a drug moiety and presenter protein ligand for therapy” (The Board of Trustees of the Leland Stanford Junior …, priority 1998, dated 2005)

Experiments:
Lck SH2 domain = molecular target: T1, Lck SH2 domain (Homo sapiens, UniProt P06239); test: Competition binding assay of radioactive Lck SH2 domain to pYEEI beads; conditions: 1.0 μM ligand plus FKBP12 2.0 μM
T1 construct: The Fyn, Lck and PLC SH2 domains were expressed in bacteria as GST fusion proteins; GST (cleaved yes); made in house; host or cells: bacteria
Excerpt: The pYEEI peptide was coupled to Affi-Gel 10 beads (Biorad) via its amino-group. The Fyn, Lck and PLC SH2 domains were expressed in bacteria as GST fusion proteins. The linker between the GST protein and the SH2 domain contained a thrombin cleavage site and a protein kinase A (PKA) phosphorylation site. The fusion protein on glutathione beads was radioactively labeled at the PKA phosphorylation site using PKA (Sigma). After extensive washing of the beads, the radioactive SH2 domain was released by cleavage with thrombin (Sigma). […] The beads were resuspended in […] PBS and the radioactivity was counted in a liquid scintillation counter after addition of 3 ml scintillation fluid. The radioactivity remaining in the 100 L supernatant was counted in the same way. It was determined that under the conditions described 65% Fyn, 25% PLC and 15%Lck SH2 domain were bound to the beads. […]
To test if the presence of FKBP12 affects the affinity of FKpYEEI for other SH2 domains aside from the PLC SH2 domain, FKpYEEI and FKBP12 were added to binding reactions containing the Fyn, Lck or PLC SH2 domains (FIG. 10). […] The binding reactions were rotated at room temperature for 2 hours, centrifuged and analysed as described above. […]

FKBP12 = molecular target: T2, FKBP12 (Homo sapiens, UniProt P62942); test: Binding constants (Kd) for FKBP12, isothermal titration calorimetry
T2 construct: GST (N, cleaved yes); made in house
Excerpt: SLF was synthesized according to the procedures of Holt et al. [J. Am. Chem. Soc. 1993, 115, 9925]. SLF was coupled to the N-terminus of the resin-bound protected pYEEI peptide using PyBOP. The heterodimeric SLFpYEEI was deprotected and cleaved from the Novasyn TGT resin (Calbiochem-Novabiochem, San Diego, Ca.) using 25% trifluoroacetic acid and 2.5% triisopropyl silane in methylene chloride and the desired product was isolated using reverse phase HPLC. C. […] Recombinant FKBP12 was expressed as a GST fusion protein and bound to glutathione beads (Pharmacia). Using thrombin (Sigma) to cleave the GST-FKBP12 fusion protein at a thrombin cleavage site in the linker between GST and FKBP12, recombinant FKBP12 could be released from the glutathione beads where GST remained bound. FKBP52 was expressed with a tag of six histidine residues at its N-terminus (pET28c expression vector, Novagen). The recombinant protein was bound via the histidine tag to Ni^2+ NTA agarose beads (Qiagen), washed extensively and eluted with imidazole. […]
SLFpYEEI and FKpYEEI are bifunctional molecules that can bind FKBP12 and FKBP52 as well as the Fyn SH2 domain (FIG. 2). The binding constants (Kd values) of the bifunctional molecules for the three proteins were measured using isothermal titration calorimetry (ITC) (Table 1).

T1 sequence (P06239 127-224 limits assumed): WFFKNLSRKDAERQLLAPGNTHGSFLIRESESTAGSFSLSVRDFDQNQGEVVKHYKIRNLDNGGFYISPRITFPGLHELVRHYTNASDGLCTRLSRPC
T2 sequence (P62942 whole entry, species assumed): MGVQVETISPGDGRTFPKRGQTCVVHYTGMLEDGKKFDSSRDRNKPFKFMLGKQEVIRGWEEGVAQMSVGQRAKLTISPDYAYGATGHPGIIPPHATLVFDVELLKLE

CC[C@H](C)[C@H](NC(=O)[C@H](CCC(=O)O)NC(=O)[C@H](CCC(=O)O)NC(=O)[C@H](Cc1ccc(OP(=O)(O)O)cc1)NC(=O)OCC[C@@H]1/C=C(\C)C[C@H](C)C[C@H](OC)[C@H]2O[C@@](O)(C(=O)C(=O)N3CCCC[C@H]3C(=O)O[C@H](/C(C)=C/[C@@H]3CC[C@@H](O)[C@H](OC)C3)[C@H](C)[C@@H](O)CC1=O)[C@H](C)C[C@@H]2OC)C(=O)O [FKpYEEI]
Effect of FKBP12 on affinity for the Lck SH2 domain (Lck SH2 domain): does not affect the affinity | Kd (FKBP12): 45 nM

CC[C@H](C)[C@H](NC(=O)[C@H](CCC(=O)O)NC(=O)[C@H](CCC(=O)O)NC(=O)[C@H](Cc1ccc(OP(=O)(O)O)cc1)NC(=O)COc1cccc([C@@H](CCc2ccc(OC)c(OC)c2)OC(=O)[C@@H]2CCCCN2C(=O)C(=O)C(C)(C)CC)c1)C(=O)O [SLFpYEEI]
Effect of FKBP12 on affinity for the Lck SH2 domain (Lck SH2 domain): reduced binding | Kd (FKBP12): 61 nM
